Each structure is given as a SMILES string.

One experiment has as its system A549 cells. Put plainly: Cell viability of A549 cells after MTHFD1 knock-down. In kind it is cell-based. As to conditions: 72 hours (S)-JQ1 (FIG. 21A). As for the experimental part: KBM7 (human chronic myelogenous leukemia cell lines), MV4-11 (biphenotypic B myelomonocytic leukemia), MEG-01 (human chronic myelogenous leukemia), K-562 (human chronic myelogenous leukemia) and HAP1 (KBM7-derived) cell lines were cultured in Iscove's Modified Dulbecco's Medium (IMDM, Gibco), supplemented with 10% Fetal Bovine Serum (FBS; Gibco). HEK293T (human embryonic kidney) and HELA (cervix adenocarcinoma) cell lines were cultured in Dulbecco's Modified Eagles Medium (DMEM, Gibco) supplemented with 10% FBS. MOLM-13 (human acute monocytic leukemia), NOMO-1 (human acute monocytic leukemia) and A549 (lung carcinoma) cell lines were cultured in RPMI-1640 (Roswell Park Memorial Institute, Gibco) supplemented with 10% FBS. All the mentioned cell lines were incubated in 5% CO2 atmosphere at 37° C.

In a further experiment the target is T1, BRD4-MTHFD1 interaction (Homo sapiens, UniProt O60885+P11586).
T1 construct: MTHFD1 pull-down performed on HAP1 whole cell lysates treated with 50 μM (S)-JQ1, MTX; endogenous in cells; host or cells: HAP1
T1 sequence (P11586 whole entry, other chains not shown): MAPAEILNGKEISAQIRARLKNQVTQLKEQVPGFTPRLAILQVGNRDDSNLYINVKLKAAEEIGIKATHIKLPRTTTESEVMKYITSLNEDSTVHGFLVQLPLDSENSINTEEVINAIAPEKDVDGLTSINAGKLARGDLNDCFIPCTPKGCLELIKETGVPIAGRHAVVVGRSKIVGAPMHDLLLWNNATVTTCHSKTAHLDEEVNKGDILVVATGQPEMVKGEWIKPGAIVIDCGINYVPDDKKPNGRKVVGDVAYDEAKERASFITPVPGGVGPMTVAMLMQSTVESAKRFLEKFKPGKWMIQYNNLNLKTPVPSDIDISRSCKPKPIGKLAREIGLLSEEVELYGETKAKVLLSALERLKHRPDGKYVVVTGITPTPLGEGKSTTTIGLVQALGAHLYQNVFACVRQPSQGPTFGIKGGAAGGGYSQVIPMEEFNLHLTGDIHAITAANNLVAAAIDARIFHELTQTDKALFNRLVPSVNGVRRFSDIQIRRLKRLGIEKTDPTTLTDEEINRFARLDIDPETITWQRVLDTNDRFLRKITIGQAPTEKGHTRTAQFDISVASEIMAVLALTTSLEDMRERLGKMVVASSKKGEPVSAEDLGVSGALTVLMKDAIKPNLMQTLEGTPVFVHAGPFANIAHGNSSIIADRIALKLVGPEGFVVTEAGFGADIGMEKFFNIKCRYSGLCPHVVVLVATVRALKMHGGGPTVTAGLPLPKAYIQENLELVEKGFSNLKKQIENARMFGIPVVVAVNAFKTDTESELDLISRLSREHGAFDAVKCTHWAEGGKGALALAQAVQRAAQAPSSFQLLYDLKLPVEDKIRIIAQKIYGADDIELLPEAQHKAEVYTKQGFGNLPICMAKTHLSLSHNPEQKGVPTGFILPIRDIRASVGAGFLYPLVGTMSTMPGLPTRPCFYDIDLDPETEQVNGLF
Put plainly: MTHFD1 pull-down on HAP1 whole cell lysates (BRD4-MTHFD1 interaction). In kind it is binding. As to conditions: HAP1 whole cell lysates treated with 50 μM (FIG. 9I). As to the method:
For immunoprecipitation, 1 mg of protein extract was incubated overnight at 4° C. with 10 μl of Dynabeads (either A or G, Life technology) preincubated for 2 hours at 4° C. with 1 μg of BRD4 (ab128874, Abcam), MTHFD1 (A8, Santa Cruz) or GFP (G10362, Life Technology) antibodies.

In the next experiment the test system is A549 xenograft. Kind of experiment: A549 xenograft mouse model. In kind it is in vivo. As to conditions: NOD SCID gamma mice; 30 mg/kg (S)-JQ1 i.p. five times per week and/or 25 mg/kg MTX i.p. twice weekly from day 19 to day 43 (FIG. 21B-D). As for the experimental part: Mouse xenograft studies were performed as described previously^35. 2×10^6 A549 cells, diluted 1:1 in matrigel, were transplanted subcutaneously into NOD SCID gamma mice. Treatment (30 mg/kg (S)-JQ1 by intraperitoneal injection five times per week, and 25 mg/kg MTX per intraperitoneal injection twice weekly) was started when tumors were established, 19 days post transplantation. Tumor volumes were evaluated twice a week by measuring two perpendicular diameters with calipers. Tumor volume was calculated using the following equation: (width*width*length)/2. Treatment was performed according to an animal licence protocol approved by the Bundesministerium für Wissenschaft and Forschung (BMWF-66.009/0280-II/3b/2012). At day 43 mice were sacrificed and tumors excised and weighted.

Another experiment has as its system BRD4. Put plainly: REDS reporter cell line, RFP expression (Redness) on BRD4 inhibition. In kind it is cell-based, human. The text has this: Live cell imaging pictures were taken from cells seeded on clear flat bottom 96-well or 384-well plates (Corning), with the Operetta High Content Screening System (PerkinElmer), 20× objective and non-confocal mode. RFP quantification was done using the basic PerkinElmer software for nuclei detection and analysis, adapted for the nucleus diameter range of the specific cell line used (KBM7, 13 μm). Only RFP positive nuclei were detected and counted.
(§1) The prerequisite for effective GT genetic screens is a haploid system where monoallelic disruptive GT integration results in gene knock-out (KO). Therefore, KBM7 cells, a chronic myeloid leukemia cell line with near haploid karyotype, were chosen for the generation of the BRD4 reporter cell lines as previously described^15. […] Propidium iodide (PI) incorporation and FACS analysis were used to assay the cell cycle profile of several REDS clones in order to select a haploid clone suitable for GT-based genetic screen.
The suitability of the REDS1 clone for a GT-based genetic screen was then further validated.

Experiment [1] has as its system panel of six cell lines (four not sensitive to BRD4 inhibition, plus KBM7 and HAP1). Put plainly: Cell viability of cancer cell lines, single agents and combination. Type of experiment: cell-based, human. As to conditions: NOMO-1 the most sensitive to MTX (FIG. 13A, 13B). As to the method: HEK293T (human embryonic kidney) and HELA (cervix adenocarcinoma) cell lines were cultured in Dulbecco's Modified Eagles Medium (DMEM, Gibco) supplemented with 10% FBS. […] All the mentioned cell lines were incubated in 5% CO2 atmosphere at 37° C.

A further experiment deals with WT-KBM7 cells. Kind of experiment: Cell cycle profile by PI staining and FACS (diploidization). In kind it is cell-based, human. As to conditions: treated overnight during one week, PI incorporation and FACS (FIG. 6D). As to the method:
For cell cycle analysis, 1 million cells were fixed with 70% ethanol for 24 hours, washed with PBS/1% BSA/0.1% Tween and incubated with RNase for 30 minutes. Nuclei were stained with 5 μg/ml PI (propidium iodide, Sigma) for 10 minutes prior to FACS analysis (BD FACSCalibur Flow Cytometer).
as §1, with “screen. […] REDS1 was the only clonal cell line with haploid karyotype (see FIG. 6B), also confirmed by metaphase spreads (see FIG. 6C).” for “screen.”

The test system of experiment [2] is MTHFD1 nuclear localization. Kind of experiment: Nuclear vs cytosol fractionation Western blot in HAP1 cells. In kind it is cell-based, human. Particulars: MTX 1 μM, 24 hours (FIG. 2D). As for the experimental part:
For Western Blot, proteins were separated on polyacrylamide gels with SDS running buffer (50 mM Tris, 380 mM Glycine, 7 mM SDS) and transferred to nitrocellulose blotting membranes. All membranes were blocked with blocking buffer (5% (m/v) milk powder (BioRad) in TBST (Tris-Buffered Saline with Tween: 50 mM Tris (tris (hydroxymethyl)aminomethane), 150 mM NaCl, 0.05% (v/v) Tween 20, adjusted to pH 7.6). Proteins were probed with antibodies against BRD4 (ab128874, 1:1000, Abcam), Actin (ab16039, 1:1000, Abcam), MTHFD1 (ab70203, Abcam; H120, Santa Cruz; A8, Santa Cruz; all used at 1:1000), GFP (G10362, 1:1000, Life Technology), RCC1 (C-20, 1:1000, Santa Cruz), β-Tubulin (T-4026, 1:1000, Sigma), SHMT1 (ab186130, 1:1000, Abcam) and H2B (ab156197, 1:1000, Abcam) and detected by HRP (horseradish peroxidase) conjugated donkey anti-rabbit IgG antibody (ab16284, 1:5000, Abcam) or donkey anti-mouse IgG antibody (Pierce) and visualized with the Pierce ECL Western Blotting substrate (Amersham), according to the provided protocol.
In general terms: In western blotting, separated proteins are transferred to a membrane and probed.

In another experiment the test system is nuclear folate pool. Kind of experiment: Folate metabolites in nuclear and cytosolic fractions of HAP1 cells (LC-MS/MS). Type of experiment: cell-based, human. Particulars: 6 hours, MTX and (S)-JQ1 1 μM, dBET6 0.5 μM (FIG. 19B).
For another experiment, the target named is T2, chromatin-bound BRD4 (Homo sapiens, UniProt O60885).
T2 construct: Western Blot assay performed on chromatin associated protein samples extracted from HAP1 cells treated with the indicated compounds; endogenous in cells; host or cells: HAP1
Kind of experiment: Western blot of chromatin associated proteins: BRD4. As to conditions: HAP1 cells, MTX 1 μM, 2 or 24 hours (FIG. 2C). In kind it is cell-based.

Experimental for chromatin-bound BRD4: Cell fractionation and chromatin enrichment was carried out as previously described^29 with some adaptations. Briefly, for 100 million cells, the chromatin enriched pellet was taken up in 250 μl benzonase digestion buffer (15 mM HEPES, 1 mM EDTA, 1 mM EGTA, 0.1% NP40, protease inhibitor cocktail (cOmplete, Roche)) after washing, and sonicated for 120 seconds on the Covaris S220 focused-ultrasonicator with the following settings: Peak Power 140; Duty-Factor 10.0; Cycles/Burst 200. After addition of 0.25 U benzonase and 2.5 μg RNase, the chromatin was incubated for 40 minutes at 4° C. on a rotary shaker. 2× SDS lysis buffer (100 mM HEPES, 4% SDS, 2 mM PMSF and protease inhibitor cocktail (cOmplete, Roche)) was added to the samples in a 1:1 ratio and incubated for 10 minutes at room temperature followed by 5 minutes denaturation at 99° C. After centrifugation at 16,000 g for 10 minutes at room temperature, the supernatant was transferred to a new tube.
Experimental for nuclear folate pool: In order to quantify folates in the nuclear and cytosolic fractions, 20 millions of HAP1 cells per condition were washed twice with cold PBS, and collected into 50 ml falcon tube by centrifugation for 5 minutes at 280 g and 4° C. Cell lysis was performed on ice in the dark by incubating cell pellets with 1:5 hypotonic lysis buffer for 10 minutes. Nuclei were collected by centrifugation for 5 minutes at 420 g and 4° C. Supernatants (cytosolic fractions) were also collected. Both fractions were immediately snap frozen. For nucleus samples, 10 μL of ISTD mixture was added to nucleus pellet in 1.5 mL Eppendorf tube followed by addition of 145 μL of ice-cold extraction solvent (10 mg/mL ascorbic acid solution in 80% methanol, 20% water, v/v). The samples were vortexed for 10 seconds, afterwards incubated on ice for 3 min and vortexed again for 10 seconds. After centrifugation (14000 rpm, 10 min, 4° C.), the supernatant was collected into HPLC vials. […] An Acquity UHPLC system (Waters) coupled with Xevo TQ-MS (Waters) triple quadrupole mass spectrometer was used for quantitative analysis of metabolites. […] Quantification of all metabolites was performed using MassLynx V4.1 software from Waters. The seven-point linear calibration curves with internal standardization and 1/× weighing was constructed for the quantification.

Regarding `Cc1sc2c(c1C)C(c1ccc(Cl)cc1)=N[C@@H](CC(=O)OC(C)(C)C)c1nnc(C)n1-2` [(S)-JQ1], the “sensitivity to (S)-JQ1 after shRNA for MTHFD1” value in the experiment on A549 cells is recorded as “increased sensitivity”. The “effect on BRD4-MTHFD1 interaction in MTHFD1 pull-down” value on BRD4-MTHFD1 interaction is on record as “unaffected”. In addition, the tumor growth entry in the experiment on A549 xenograft was “not impaired”. The “RFP expression detected by live cell imaging” value in the experiment on BRD4 (REDS1 cells, 1 μM, 24 hours (FIG. 7B)) is “robustly expressed RFP”. Besides, the “expression of the reporter gene RFP in REDS detected by FACS” value with BRD4 (REDS clones, 0.5 μM (S)-JQ1 (FIG. 6A)) was “rapid and consistent expression of the reporter gene red fluorescent protein (RFP)”. Also, the “sensitivity of cell lines to single treatment (dose response curves)” value in [1] was “low sensitivity”. In the experiment on WT-KBM7 cells, the “diploidization of WT-KBM7 (cell cycle profile)” value is on record as “induced WT-KBM7 diploidization”.

As to `CN(Cc1cnc2nc(N)nc(N)c2n1)c1ccc(C(=O)N[C@@H](CCC(=O)O)C(=O)O)cc1` [MTX, methotrexate], the “effect on BRD4-MTHFD1 interaction in MTHFD1 pull-down” value on BRD4-MTHFD1 interaction is “unaffected”. Also, the “MTHFD1 (or SHMT1) nuclear localization” value in [2] was “not impairing MTHFD1 (or SHMT1) nuclear localization”. In the experiment on A549 xenograft, the tumor growth result is listed as “not impaired”. For the same molecule, the “Redness after MTX treatment” value in the experiment on BRD4 (REDS reporter cells, three days of MTX (FIG. 13C)) is “only weakly increased”. The “changes in the nuclear folate pool” value in the experiment on nuclear folate pool is given as “highly correlated characteristic changes specifically in the nuclear folate pool”. Moreover, the “BRD4 levels on chromatin after MTX” value on chromatin-bound BRD4 is given as “did not affect BRD4 levels”. Also, the “sensitivity of cell lines to single treatment (dose response curves)” value in experiment [1] is “moderate to low sensitivity”.

The record behind these values is patent publication US20190262355A1, “COMBINATION OF A BRD4 INHIBITOR AND AN ANTIFOLATE FOR THE THERAPY OF CANCER” (CeMM-Forschungszentrum für Molekulare Medizin GmbH, priority 2016, published 2019).
